Laboratory results taken from PubChem BioAssay AID651806 (Broad Institute, 2012).
The source made the active and inactive calls.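 Rule for the calls: active = AC50 no higher than twice the top valid tested dose, with signal falling as dose rises; inconclusive = flat fit with partial inhibition, or a poor-quality fit; inactive = the rest, plus effects in the rising direction.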

Target: Kelch-like ECH-associated protein 1 (Homo sapiens) (UniProt Q14145)
Assay: Keap1 Kelch-Nrf2 peptide binding inhibitors, dose response, biochemical, fluorescence polarization, dry powder, set 3 (AID 651806)
Conditions: Keap1 Kelch/FITC-Nrf2 peptide fluorescence polarization; for activity change, negative = inhibition: at 50 µM (top of the series)

Sequence of Kelch-like ECH-associated protein 1 (Homo sapiens) (Q14145 whole entry, looked up): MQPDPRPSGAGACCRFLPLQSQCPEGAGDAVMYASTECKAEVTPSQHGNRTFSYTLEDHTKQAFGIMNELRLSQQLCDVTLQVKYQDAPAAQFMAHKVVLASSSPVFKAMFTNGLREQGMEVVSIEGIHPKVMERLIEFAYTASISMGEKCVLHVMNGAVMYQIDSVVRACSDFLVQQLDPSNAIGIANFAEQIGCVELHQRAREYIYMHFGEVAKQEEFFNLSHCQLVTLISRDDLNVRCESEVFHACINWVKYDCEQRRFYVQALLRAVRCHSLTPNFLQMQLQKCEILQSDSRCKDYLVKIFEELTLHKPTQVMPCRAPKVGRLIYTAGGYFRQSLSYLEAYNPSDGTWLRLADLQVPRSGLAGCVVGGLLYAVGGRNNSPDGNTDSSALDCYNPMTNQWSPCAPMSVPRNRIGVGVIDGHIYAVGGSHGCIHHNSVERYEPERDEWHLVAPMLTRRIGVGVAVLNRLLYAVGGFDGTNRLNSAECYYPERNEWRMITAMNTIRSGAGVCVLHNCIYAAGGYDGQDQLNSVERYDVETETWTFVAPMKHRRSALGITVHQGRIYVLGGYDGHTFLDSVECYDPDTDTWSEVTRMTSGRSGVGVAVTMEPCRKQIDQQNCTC

O=C(O)C1CCCCC1C(=O)NCC1c2ccccc2CCN1C(=O)Cc1ccccc1 (stereo not given)
activity change, negative = inhibition: inactive

O=C(NC[C@@H]1c2ccccc2CCN1C(=O)[C@@H]1CCCC[C@@H]1C(=O)O)c1ccccc1CO
activity change, negative = inhibition: inactive

O=C(O)C1CCCCC1C(=O)N1CCCCC1CN1C(=O)c2ccccc2C1=O (stereo not given)
activity change, negative = inhibition: inactive

O=C1c2ccccc2C(=O)N1CC1=NCCc2ccccc21
activity change, negative = inhibition: inactive

CCOC(=O)C(C(=O)OCC)c1cc(CNS(=O)(=O)c2ccc(C)cc2C)c2ccccc2n1
activity change, negative = inhibition: inactive

CCOC(=O)C(C(=O)OCC)c1cc(CN2C(=O)c3ccccc3C2=O)c2ccccc2n1
activity change, negative = inhibition: inactive

COC(=O)[C@@H]1CCCC[C@@H]1C(=O)N1CCc2ccccc2[C@H]1CN1C(=O)c2ccccc2C1=O
activity change, negative = inhibition: inactive

O=C(O)C1CCCCC1C(=O)N1CCc2ccccc2C1CN1C(=O)c2ccccc2S1(=O)=O (stereo not given)
AC50: > 100 µM (inactive)

O=C(O)C1CCCCC1C(=O)N1CCc2ccccc2C1CN1C(=O)Cc2ccccc2C1=O (stereo not given)
AC50: > 100 µM (inactive)

O=C(O)CCC(=O)N1CCc2ccccc2C1CN1C(=O)c2ccccc2C1=O (stereo not given)
activity change, negative = inhibition: inactive

CCOC(=O)C(C(=O)OCC)c1nc(NS(=O)(=O)c2c(C)cc(C)cc2C)c2ccccc2n1
activity change, negative = inhibition: inactive

Cc1cc(C)c(S(=O)(=O)Nc2nc(NCCO)nc3ccccc23)c(C)c1
activity change, negative = inhibition: inactive

O=C(Cc1ccccc1)NC[C@@H]1c2ccccc2CCN1C(=O)[C@@H]1CCCC[C@@H]1C(=O)O
activity change, negative = inhibition: inactive

C[C@H](NC(=O)C1CCCC[C@H]1C(=O)O)c1ccccc1 (mixture of isomers)
activity change, negative = inhibition: inactive

O=C(O)C1CCCCC1C(=O)N1CCc2ccccc2C1CN1C(=O)[C@H]2CCCC[C@H]2C1=O (stereo not given in full)
activity change, negative = inhibition: inactive

COc1ccccc1CCNC(=O)[C@@H]1c2ccccc2CCN1C(=O)C1CCCCC1C(=O)O (stereo not given in full)
activity change, negative = inhibition: inactive

COc1ccc(CCN=C2C=C(NS(=O)(=O)c3c(C)cc(C)cc3C)c3ccccc3C2=O)cc1
activity change, negative = inhibition: inactive

O=C(O)[C@H]1CCCC[C@H]1C(=O)N1CCc2ccccc2C1 (racemic)
activity change, negative = inhibition: inactive

COC(=O)C(C(=O)OC)c1cc(NS(=O)(=O)c2c(C)cc(C)cc2C)c2ccccc2c1O
activity change, negative = inhibition: inactive

O=C(NC[C@@H]1c2ccccc2CCN1C(=O)[C@@H]1CCCC[C@@H]1C(=O)O)c1ccccc1
activity change, negative = inhibition: inactive

O=C(O)C1CCCCC1C(=O)N1CCc2ccccc2[C@H]1C(=O)NC12CC3CC(CC(C3)C1)C2 (stereo not given in full)
activity change, negative = inhibition: inactive

O=C(NCCc1ccccc1)c1ccccc1C(=O)NC[C@@H]1c2ccccc2CCN1C(=O)C1CCCCC1C(=O)O (stereo not given in full)
activity change, negative = inhibition: inactive

NC(=O)[C@H]1CCCC[C@H]1C(=O)N1CCc2ccccc2[C@H]1CN1C(=O)c2ccccc2C1=O
activity change, negative = inhibition: inactive

CC(C)OC(=O)C(C(=O)C(F)(F)F)c1cc(NS(=O)(=O)c2ccccc2)c2ccccc2c1O (stereo not given)
AC50: > 100 µM (inactive)

COC(=O)[C@@H]1CCCC[C@@H]1C(=O)N1CCc2ccccc2[C@@H]1CN1C(=O)c2ccccc2C1=O
activity change, negative = inhibition: inactive

O=C1c2ccccc2C(=O)N1C[C@@H]1c2ccccc2CCN1C(=O)OCc1ccccc1
activity change, negative = inhibition: inactive

O=C(O)C1CCCCC1C(=O)Nc1ccccc1CN1C(=O)c2ccccc2C1=O (stereo not given)
activity change, negative = inhibition: inactive

O=C(O)[C@H]1CCCC[C@H]1C(=O)N1CCc2ccccc2C1CCN1C(=O)c2ccccc2C1=O (stereo not given in full)
activity change, negative = inhibition: inactive

O=C(Oc1cc(CN2C(=O)c3ccccc3C2=O)c2ccccc2[n+]1[O-])c1cccc(Cl)c1
activity change, negative = inhibition: inactive

O=C(O)[C@H]1CCCC[C@H]1C(=O)N1CCC2=C(CCCC2)C1CN1C(=O)c2ccccc2C1=O (stereo not given in full)
AC50: > 100 µM (inactive) | activity change, negative = inhibition: inactive

CC(=O)Nc1cc(NS(=O)(=O)c2c(C)cc(C)cc2C)c2ccccc2c1O
AC50: > 100 µM (inactive)

O=S(=O)(Nc1nc(NCC2CCCCC2)nc2ccccc12)c1ccccc1
activity change, negative = inhibition: inactive

NC(=O)c1ccccc1C(=O)NC[C@@H]1c2ccccc2CCN1C(=O)[C@@H]1CCCC[C@@H]1C(=O)O
activity change, negative = inhibition: inactive

Cc1ccc(S(=O)(=O)NC2=CC(=N[C@@H](C)C(=O)OC(C)(C)C)C(=O)c3ccccc32)c(C)c1
activity change, negative = inhibition: inactive
